Drawing on ChEMBL document CHEMBL4325931, “Modification of the Thioglycosyl-Naphthalimides as Potent and Selective Human O-GlcNAcase Inhibitors” (ACS Med Chem Lett, 2018), this text covers inhibition, Ki and Ratio Ki for 25 compounds.

pKi: −log10 of the molar value. A value given as a limit tells only on which side of the number the result lay.

The target of experiment [1] is T1, Protein O-GlcNAcase (Homo sapiens) (UniProt O60502).
T1 sequence (whole entry): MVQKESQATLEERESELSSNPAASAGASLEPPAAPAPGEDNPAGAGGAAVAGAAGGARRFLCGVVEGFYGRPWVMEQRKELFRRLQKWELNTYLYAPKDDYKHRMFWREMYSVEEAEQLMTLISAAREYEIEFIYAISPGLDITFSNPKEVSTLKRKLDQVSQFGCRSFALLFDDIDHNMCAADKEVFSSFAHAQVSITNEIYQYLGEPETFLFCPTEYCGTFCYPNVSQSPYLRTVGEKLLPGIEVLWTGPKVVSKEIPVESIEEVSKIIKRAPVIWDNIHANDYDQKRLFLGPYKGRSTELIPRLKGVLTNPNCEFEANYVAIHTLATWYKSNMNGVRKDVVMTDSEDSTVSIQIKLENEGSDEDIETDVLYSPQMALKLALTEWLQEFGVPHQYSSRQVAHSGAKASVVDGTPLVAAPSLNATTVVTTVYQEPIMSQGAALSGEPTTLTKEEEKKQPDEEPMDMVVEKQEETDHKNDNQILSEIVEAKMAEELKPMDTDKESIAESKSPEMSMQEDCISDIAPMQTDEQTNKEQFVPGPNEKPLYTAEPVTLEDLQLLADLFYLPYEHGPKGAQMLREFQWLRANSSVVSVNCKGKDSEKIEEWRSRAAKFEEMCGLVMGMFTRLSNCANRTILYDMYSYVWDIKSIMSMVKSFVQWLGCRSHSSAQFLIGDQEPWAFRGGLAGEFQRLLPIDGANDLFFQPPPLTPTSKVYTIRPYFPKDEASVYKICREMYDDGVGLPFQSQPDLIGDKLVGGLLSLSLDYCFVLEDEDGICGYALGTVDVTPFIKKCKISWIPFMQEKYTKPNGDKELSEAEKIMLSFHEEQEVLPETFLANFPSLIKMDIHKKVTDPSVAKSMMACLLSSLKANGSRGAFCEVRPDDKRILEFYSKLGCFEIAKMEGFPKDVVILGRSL
Put plainly: Inhibition of recombinant human OGA expressed in Escherichia coli BL21 (DE3) at 20 uM using 4-Mu-GlcNAc as substrate preincubated for 10 mins followed by substrate addition and measured after 30 mins by fluorescence assay relative to control.

The target of experiment [2] is T2, Beta-hexosaminidase subunit beta (Homo sapiens) (UniProt P07686).
T2 sequence (whole entry): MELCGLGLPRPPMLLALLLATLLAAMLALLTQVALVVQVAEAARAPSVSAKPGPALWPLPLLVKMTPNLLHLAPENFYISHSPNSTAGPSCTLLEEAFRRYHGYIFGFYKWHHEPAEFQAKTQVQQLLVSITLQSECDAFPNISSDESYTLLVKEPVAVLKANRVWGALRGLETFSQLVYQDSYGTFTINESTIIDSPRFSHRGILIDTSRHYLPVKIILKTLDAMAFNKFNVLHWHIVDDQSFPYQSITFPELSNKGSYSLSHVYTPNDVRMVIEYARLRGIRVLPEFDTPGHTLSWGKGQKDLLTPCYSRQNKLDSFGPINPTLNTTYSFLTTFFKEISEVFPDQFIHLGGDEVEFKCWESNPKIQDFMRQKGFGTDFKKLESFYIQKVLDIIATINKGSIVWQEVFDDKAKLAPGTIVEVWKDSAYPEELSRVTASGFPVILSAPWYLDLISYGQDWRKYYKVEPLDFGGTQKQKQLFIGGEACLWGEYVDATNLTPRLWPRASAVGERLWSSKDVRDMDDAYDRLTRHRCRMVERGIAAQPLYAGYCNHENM
Briefly: Inhibition of recombinant human His6-tagged HexB expressed in Pichia pastoris at 20 uM using 4-Mu-GlcNAc as substrate preincubated for 10 mins followed by substrate addition and measured after 30 mins by fluorescence assay relative to control.

A further experiment addresses T3, Protein O-GlcNAcase (Homo sapiens, UniProt O60502).
T3 sequence (O60502 whole entry): T1 sequence (whole entry)
Put plainly: Inhibition of recombinant human OGA expressed in Escherichia coli BL21 (DE3) using varying levels of 4-Mu-GlcNAc as substrate preincubated for 10 mins followed by substrate addition and measured after 30 mins by dixon plot analysis.

Experiment [3] deals with T4, Beta-hexosaminidase subunit beta (Homo sapiens, UniProt P07686).
T4 sequence (P07686 whole entry): T2 sequence (whole entry)
Briefly: Inhibition of recombinant human His6-tagged HexB expressed in Pichia pastoris using varying levels of 4-Mu-GlcNAc as substrate preincubated for 10 mins followed by substrate addition and measured after 30 mins by dixon plot analysis.

The species entered for the next experiment is Homo sapiens. Briefly: Selectivity ratio of Ki for recombinant human His6-tagged HexB expressed in Pichia pastoris to Ki for recombinant human OGA expressed in Escherichia coli BL21 (DE3).
The nature of experiment [4]: Inhibition of Ostrinia furnacalis beta-N-acetylhexosaminidase using pNP-beta-GlcNAc as substrate by dixon plot analysis.
Experiment [5] concerns the target Beta-hexosaminidase (Homo sapiens). Put plainly: Inhibition of human beta-N-acetylhexosaminidase using pNP-beta-GlcNAc as substrate by dixon plot analysis.
For experiment [6], the target named is T2, Beta-hexosaminidase subunit beta (Homo sapiens). Briefly: Inhibition of recombinant human His6-tagged HexB expressed in Pichia pastoris at 100 uM using varying levels of 4-Mu-GlcNAc as substrate preincubated for 10 mins followed by substrate addition and measured after 30 mins by dixon plot analysis relative to control.

As usually defined, the inhibition is the change of the read-out against control, counted positive when it falls. With `CC(=O)N[C@@H]1[C@@H](O)[C@H](O)[C@@H](CO)O[C@H]1SCCCNCCCN1C(=O)c2cccc3c([N+](=O)[O-])ccc(c23)C1=O`, the inhibition in experiment [1] was found to be 20%; in experiment [2], 0%.

Broadly, the pKi is −log10 of the Ki, conventionally taken in molar units. For the compound `CC(=O)N[C@@H]1[C@@H](O)[C@H](O)[C@@H](CO)O[C@H]1SCCNCCN1C(=O)c2cccc3c(Cl)ccc(c23)C1=O`, the values for the pKi (at Protein O-GlcNAcase; in experiment [3]) were 5.70 and 5.92, respectively. Moreover, the results for the inhibition in experiment [1] and in experiment [2] were 66.1% and 73.8%, respectively. In the experiment filed under Homo sapiens, the Ratio Ki came to 0.6.

As to `CC(=O)N[C@@H]1[C@@H](O)[C@H](O)[C@@H](CO)O[C@H]1SCCNCCCN1C(=O)c2cccc3c(Br)ccc(c23)C1=O`, the pKi at Protein O-GlcNAcase is 6.05; in experiment [3], 5.74. Further, the inhibition in experiment [1] was 84.7%; in experiment [2], 70.5%. The Ratio Ki in the experiment listed under Homo sapiens came out at 2.

As to `CC(=O)N[C@@H]1[C@@H](O)[C@H](O)[C@@H](CO)O[C@H]1SCCNCCCN1C(=O)c2cccc3c(Cl)ccc(c23)C1=O`, the pKi on Protein O-GlcNAcase was 6.10; in experiment [3] it was 5.80. Further, the inhibition came out at 83.3% in experiment [1] and 70.8% in experiment [2]. In addition, in the experiment listed under Homo sapiens, the Ratio Ki turned out to be 2.

Take `Cc1nnc(CNCCN2C(=O)c3cccc4cccc(c34)C2=O)s1`: the pKi was 5.37 in experiment [4] and 5.66 in experiment [5].

For `CC(=O)N[C@@H]1[C@@H](O)[C@H](O)[C@@H](CO)O[C@H]1SCCCNCCCN1C(=O)c2cccc3c(N4CCCCC4)ccc(c23)C1=O`, the inhibition in experiment [1] was found to be 49.1%; in experiment [2] it was 0%.

Take `CC(=O)N[C@@H]1[C@@H](O)[C@H](O)[C@@H](CO)O[C@H]1SCCCNCCN1C(=O)c2cccc3c(Br)ccc(c23)C1=O`: the pKi is 5.46 at Protein O-GlcNAcase and 5.29 in experiment [3]. In addition, the results for the inhibition in experiment [1] and in experiment [2] were 75.7% and 60.6%, respectively. The Ratio Ki in the experiment filed under Homo sapiens stood at 1.5.

Take `Cc1nnc(CNCCN2C(=O)c3cccc4c(N(C)C)ccc(c34)C2=O)s1`: the pKi in experiment [4] is 6.52; in experiment [5] it was less than 4.00.

Turning to `CC(=O)N[C@@H]1[C@@H](O)[C@H](O)[C@@H](CO)O[C@H]1SCCNCCCN1C(=O)c2cccc3c(N(C)C)ccc(c23)C1=O`, the inhibition in experiment [1] is 40.9%; in experiment [2], 0%.

For `CC(=O)N[C@@H]1[C@@H](O)[C@H](O)[C@@H](CO)O[C@H]1SCCCNCCCN1C(=O)c2cccc3c(N(C)C)ccc(c23)C1=O`, the inhibition in experiment [1] amounted to 28.2%; in experiment [2], 0%.

On to `COc1ccc2c3c(cccc13)C(=O)N(CCCNCCS[C@@H]1O[C@H](CO)[C@@H](O)[C@H](O)[C@H]1NC(C)=O)C2=O`, for which the pKi is 5.80 at Protein O-GlcNAcase and 4.66 in experiment [3]. Moreover, the inhibition is 73.1% in experiment [1] and 47.9% in experiment [2]. The Ratio Ki in the experiment listed under Homo sapiens worked out at 13.8.

`CC(=O)N[C@@H]1[C@@H](O)[C@H](O)[C@@H](CO)O[C@H]1SCCCNCCN1C(=O)c2cccc3c(N(C)C)ccc(c23)C1=O`: the inhibition in experiment [1] was found to be 26.6%; in experiment [2], 0%.

Regarding `CC(=O)N[C@@H]1[C@@H](O)[C@H](O)[C@@H](CO)O[C@H]1SCCNCCN1C(=O)c2cccc3c(Br)ccc(c23)C1=O`, the pKi on Protein O-GlcNAcase was 5.92; in experiment [3], 5.59. Besides, the inhibition amounted to 73.2% in experiment [1] and 73.3% in experiment [2]. Also, the Ratio Ki in the experiment listed under Homo sapiens turned out to be 2.2.

`CC(=O)N[C@@H]1[C@@H](O)[C@H](O)[C@@H](CO)O[C@H]1SCCCNCCCN1C(=O)c2cccc3c(Br)ccc(c23)C1=O`: the pKi on Protein O-GlcNAcase is 5.66; in experiment [3], 5.36. Besides, the inhibition in experiment [1] was 59.2%; in experiment [2] it was 65%. In addition, the Ratio Ki in the experiment listed under Homo sapiens turned out to be 2.

Take `CC(=O)N[C@@H]1[C@@H](O)[C@H](O)[C@@H](CO)O[C@H]1SCCNCCN1C(=O)c2cccc3c([N+](=O)[O-])ccc(c23)C1=O`: the figures for the inhibition in experiment [1] and in experiment [2] were 25.1% and 13.8%, respectively.

On to `CC(=O)N[C@@H]1[C@@H](O)[C@H](O)[C@@H](CO)O[C@H]1SCCNCCCN1C(=O)c2cccc3c([N+](=O)[O-])ccc(c23)C1=O`, for which the pKi at Protein O-GlcNAcase is 5.08. For the same compound, the results for the inhibition in experiment [1], in experiment [6] and in experiment [2] were 55%, less than 50% and 8%, respectively. Further, the Ratio Ki in the experiment filed under Homo sapiens is more than 12.

Turning to `CC(=O)N[C@@H]1[C@@H](O)[C@H](O)[C@@H](CO)O[C@H]1SCCCNCCN1C(=O)c2cccc3c(Cl)ccc(c23)C1=O`, the pKi was 6.15 at Protein O-GlcNAcase and 5.80 in experiment [3]. The inhibition came out at 83.6% in experiment [1] and 75.2% in experiment [2]. In the experiment listed under Homo sapiens, the Ratio Ki amounted to 2.3.

Turning to `CC(=O)N[C@@H]1[C@@H](O)[C@H](O)[C@@H](CO)O[C@H]1SCCCNCCN1C(=O)c2cccc3c([N+](=O)[O-])ccc(c23)C1=O`, the figures for the inhibition in experiment [1] and in experiment [2] were 25.6% and 0%, respectively.

With `COc1ccc2c3c(cccc13)C(=O)N(CCNCCCS[C@@H]1O[C@H](CO)[C@@H](O)[C@H](O)[C@H]1NC(C)=O)C2=O`, the inhibition in experiment [1] came to 34.3%; in experiment [2], 39%.

`CC(=O)N[C@@H]1[C@@H](O)[C@H](O)[C@@H](CO)O[C@H]1SCCNCCCN1C(=O)c2cccc3c(N4CCCCC4)ccc(c23)C1=O`: on Protein O-GlcNAcase, the pKi is 6.22. Besides, the inhibition in experiment [1] was 87.6%; in experiment [6], less than 50%; in experiment [2], 0%. The Ratio Ki in the experiment filed under Homo sapiens is more than 167.

As to `COc1ccc2c3c(cccc13)C(=O)N(CCNCCS[C@@H]1O[C@H](CO)[C@@H](O)[C@H](O)[C@H]1NC(C)=O)C2=O`, the values for the pKi (at Protein O-GlcNAcase; in experiment [3]) were 5.17 and 4.25, respectively. Also, the inhibition in experiment [1] amounted to 56.4%; in experiment [2], 22.5%. Also, the Ratio Ki in the experiment listed under Homo sapiens was 8.4.

On to `CC(=O)N[C@@H]1[C@@H](O)[C@H](O)[C@@H](CO)O[C@H]1SCCCNCCCN1C(=O)c2cccc3c(Cl)ccc(c23)C1=O`, for which the pKi was 5.68 on Protein O-GlcNAcase and 5.74 in experiment [3]. For the same compound, the figures for the inhibition in experiment [1] and in experiment [2] were 68.9% and 74.3%, respectively. For the same compound, the Ratio Ki in the experiment listed under Homo sapiens turned out to be 0.9.

As for `COc1ccc2c3c(cccc13)C(=O)N(CCCNCCCS[C@@H]1O[C@H](CO)[C@@H](O)[C@H](O)[C@H]1NC(C)=O)C2=O`, the pKi is 4.80 at Protein O-GlcNAcase and 4.61 in experiment [3]. Also, the values for the inhibition in experiment [1] and in experiment [2] were 68% and 45.2%, respectively. The Ratio Ki in the experiment listed under Homo sapiens was determined as 1.6.

With `CC(=O)N[C@@H]1[C@@H](O)[C@H](O)[C@@H](CO)O[C@H]1SCCNCCN1C(=O)c2cccc3c(N4CCCCC4)ccc(c23)C1=O`, the values for the inhibition in experiment [1] and in experiment [2] were 36.7% and 0%, respectively.

Regarding `CC(=O)N[C@@H]1[C@@H](O)[C@H](O)[C@@H](CO)O[C@H]1SCCCNCCN1C(=O)c2cccc3c(N4CCCCC4)ccc(c23)C1=O`, the pKi at Protein O-GlcNAcase was 5.49. Besides, the inhibition was 67.5% in experiment [1], less than 50% in experiment [6] and 0% in experiment [2]. Besides, the Ratio Ki in the experiment filed under Homo sapiens was more than 31.2.
